In US20230398232A1, “Composition and Use of Alternatively Formatted Anti-Mesothelin Antibodies for the Treatment of Cancer” (Navrogen, Inc., priority 2020, published 2023):
Square brackets hold non-standard residues; d marks the D form. Peptide text beside a SMILES is read from it. * marks the point of attachment. Dolaproine = CO[C@@H]([C@@H]1CCCN1)[C@@H](C)C(=O)O; Dil = CC[C@H](C)[C@H](NC)[C@@H](CC(=O)O)OC; X1 = C[C@@H](N*)[C@@H](O)c1ccccc1; NMeV = CN[C@H](C(=O)O)C(C)C

Assays:
[1] = system: NCI-N87, SW1990, HAY, YOU, OVCAR3 and A549 cells; experiment: Free cytotoxin cytotoxicity, crystal violet viability; assay type: cell-based, human; conditions: 72 hours, average over cell lines
Description: FIGS. 2A-C. Cytotoxic payloads and linkers examined for developing reformatted MES-1 antibody for optimal killing of immunoproficient and immunosuppressed mesothelin expressing cancer cells. FIG. 2A provides chemical structures of various types of cytotoxic payloads (i.e., microtubule inhibitors, DNA alkylating agents, topoisomerase inhibitors, and protein kinase inhibitors, see, e.g., Yaghoubi S, et al. J Cell Physiol 235:31-64, 2019; Wang R E, et al. J Am Chem Soc 137:3229-3232, 2015) tested against immunosuppressive and immunoproficient mesothelin expressing target cells. FIG. 2B provides chemical structures of various enzymatic and non-enzymatic cleavable and non-cleavable linkers tested to generate MES-ADCs against immunosuppressive and immune-proficient mesothelin expressing target cells. FIG. 2C provides an overview of the cytotoxicity of potential ADC payloads against mesothelin expressing cancer cells or control cell lines (Table 1). Briefly, 96-well tissue culture plates were seeded with 5,000 cells/well of mesothelin-positive NCI-N87 (CA125^+ gastric cancer), SW1990 (CA125^+ pancreatic cancer), HAY (CA125^+ mesothelioma), YOU (CA125^− mesothelioma), OVCAR3 (CA125^+ ovarian cancer) and A549 (mesothelin negative lung cancer) cells in 100 μLs of RPMI plus 7.5% heat inactivated fetal bovine serum (FBS), and 0.0001 to 500 ng/mL of cytotoxin or negative control. Cultures were incubated for 72 hours at 37° C. in 5% CO2 then quantified for viability using crystal violet staining. Dried stained wells were solubilized using 1% SDS in phosphate buffer saline (PBS) and quantified by colorimetric densitometry on a Varioskan™ multi-well plate reader at 570 nm. […] Experiments represent a minimum of triplicate wells. Statistical analysis was done using a two-sided Student' T-test.
To identify best candidates to meet this criteria, we first tested different classes of cytotoxins including DNA alkylating agents, microtubule inhibitors, and topoisomerase inhibitors (FIG. 2A). […]

mesothelioma = conditions: patients with elevated CA125 vs low CA125; cited from earlier work
follicular lymphoma = conditions: CA125 in normal range vs above normal range; cited from earlier work

Row | Compound | average EC50 [1] [ng/mL] | also measured
1 | CC[C@H](C)[C@@H]([C@@H](CC(=O)N1CCC[C@H]1[C@H](OC)[C@@H](C)C(=O)N[C@H](C)[C@@H](O)c1ccccc1)OC)N(C)C(=O)[C@@H](NC(=O)[C@@H](NC)C(C)C)C(C)C [MMAE, Monomethyl Auristatin E] (H-[NMeV]V[Dil][Dolaproine]-X1) | 1.39 | 
2 | COc1cccc2c1C(=O)c1c(O)c3c(c(O)c1C2=O)C[C@@](O)(C(=O)CO)C[C@@H]3O[C@H]1C[C@H]2[C@H](O[C@@H]3[C@@H](OC)OCCN32)[C@H](C)O1 [PNU159682, reference compound] | 0.014 | 
3 | CCc1c2c(nc3ccc(O)cc13)-c1cc3c(c(=O)n1C2)COC(=O)[C@]3(O)CC [SN38] | 2.44 | 
4 | amatuximab: anti-mesothelin antibody |  | PFS and OS outcomes (mesothelioma): worse progression-free survival (PFS) and overall survival (OS) outcomes
5 | rituximab: clinically used rituximab antibody |  | improvement in 5-year progression-free survival (follicular lymphoma): 31.4%
